Experimental data from patent publication US20240010641A1, “N-Linked Glycosylation Inhibitors and Methods of Using Same” (YALE UNIVERSITY, priority 2020, published 2024).

Tested on: N-linked glycosylation (OST) in CHO-ER-LucT cells
Experiment: CHO-ER-LucT luminescence assay for inhibition of N-linked glycosylation
Type: cell-based
Conditions: for Emax: 24 h, [compound's fold change-1.0 (DMSO)]/[NGI-1 fold change-1.0 (DMSO)]*100, read-out: Max activity (% NGI-1); for AC50: CHO-ER-LucT cells, 24 hrs exposure, seven-point dose dilution, luminescence
Protocol: The CHO-ER-LucT cells have been previously described (Contessa et al., 2010, Clinical Cancer Research, 16(12):3205-14) and are used for testing analog IC50 for inhibition of N-linked glycosylation in 96 or 384 well plate format. In these cells induction of luminescence is dependent on inhibition of glycosylation (and OST inhibition), and is determined after 24 hrs of exposure to the analog following the addition of luciferin substrate. The luminescent signal is then quantified using standard plate readers that detect luminescence (e.g., Biotek synergy). Experiments are performed over a seven-point dose dilution to generate dose response data and to identify IC50 values and maximal activity compared to controls. Data is transformed to log 10 values to generate a sigmoidal shaped dose response curve and fitted using nonlinear regression (curve fit) in GraphPad Prism7.
All HL compounds were tested in CHO-ER-LucT cells. IC50 (AC50) was estimated in following method: Concentration X is converted to logarithm (log10) to generate sigmoidal shape curve and dose response curve is generated using Nonlinear regression (curve fit) in Prism. EC50 (AC50) is calculated using log(agonist) vs response-(three parameters)] which uses standard Hill slope (=1).
Max activity: [compound's fold change−1.0 (DMSO)]/[NGI−1 fold change−1.0 (DMSO)]*100(%) (Eq. 1)

SMILES	Emax [%]	AC50 [nM]
Cc1ccc(NC(=O)c2cc(S(=O)(=O)N(C)C)cnc2N2CCCC2)cc1	14.9	94500
Cc1cnc(NC(=O)c2cc(S(=O)(=O)N(C)C)cnc2N2CCCC2)s1	50.4	70400
Cc1cnc(NC(=O)c2cc(S(=O)(=O)N(C)C)cc(F)c2N2CCCC2)s1	114	36900
CCc1cnc(NC(=O)c2cc(S(=O)(=O)N(C)C)cc(F)c2N2CCCC2)s1	97.3	3760
Cc1nc(NC(=O)c2cc(S(=O)(=O)N(C)C)ccc2N(C)C)sc1C	33.9	27900
CCc1cnc(NC(=O)c2cc(S(=O)(=O)N(C)C)ccc2N(C)C)s1	46.1	6850
Cc1nc(NC(=O)c2cc(S(=O)(=O)N(C)C)ccc2N(C)C2CC2)sc1C	43.9	3440
CCc1cnc(NC(=O)c2cc(S(=O)(=O)N(C)C)ccc2N(C)C2CC2)s1	86.8	1190
CN(c1ccc(S(=O)(=O)N(C)C)cc1C(=O)Nc1nc2c(s1)COCC2)C1CCCC1	46.2	1020
Cc1cnc(NC(=O)c2cc(S(=O)(=O)N(C)C)cnc2N(C)CC2CC2)s1	48.3	3020
CCc1cnc(NC(=O)c2cc(S(=O)(=O)N3CCOCC3)ccc2N(C)CC)s1	130	620
CCc1cnc(NC(=O)c2cc(S(=O)(=O)N3CCOCC3)ccc2N(C)C2CC2)s1	129	2500
CCc1cnc(NC(=O)c2cc(S(=O)(=O)CC3CC3)ccc2N(C)C2CCCC2)s1	89.9	1530
Cc1nc(NC(=O)c2cc(S(=O)(=O)CC3CC3)ccc2N(C)C2CCCC2)sc1C	41	2430
Cc1nc(NC(=O)c2cc(S(=O)(=O)N3CCOCC3)ccc2N(C)C2CC2)sc1C	36.7	2530
C=CCN(C)c1ccc(S(=O)(=O)N(C)C)cc1C(=O)Nc1ncc(CC)s1	108	1100
CCc1cnc(NC(=O)c2cc(S(=O)(=O)CC3CC3)ccc2N(C)CC2CC2)s1	88.3	2590
Cc1nc(NC(=O)c2cc(S(=O)(=O)N3CCN(C)CC3)ccc2N(C)CC2CC2)sc1C	76.9	2200
CN(CC1CC1)c1ccc(S(=O)(=O)N2CCOCC2)cc1C(=O)Nc1ncc(Cc2ccccc2)s1	116	13000
CCc1cnc(NC(=O)c2cc(S(=O)(=O)N(C)C)ccc2N(CC)CC)s1 [Comparator, reference compound]	46.8	3360
Cc1nc(NC(=O)c2cc(S(=O)(=O)N(C)C)ccc2N(C)C2CCCC2)sc1C [Example 1, 2-(cyclopentyl(methyl)amino)-5-(N,N-dimethylsulfamoyl)-N-(4,5-dimethylthiazol-2-yl)benzamide]	81	376
CCc1cnc(NC(=O)c2cc(S(=O)(=O)N(C)C)ccc2N(C)C2CCCC2)s1 [Example 2, 2-(cyclopentyl(methyl)amino)-5-(N,N-dimethylsulfamoyl)-N-(5-ethylthiazol-2-yl)benzamide]	129	120

SMILES	Emax [%]	AC50 [nM]
CCc1cnc(NC(=O)c2cc(S(=O)(=O)N3CCOCC3)ccc2N(C)C(C)C)s1 [Example 5, N-(5-ethylthiazol-2-yl)-2-(isopropyl(methyl)amino)-5-(morpholinosulfonyl)benzamide]	162	270
CCc1cnc(NC(=O)c2cc(S(=O)(=O)N3CCOCC3)ccc2N(C)C2CCCCC2)s1 [Example 6, 2-(cyclohexyl(methyl)amino)-N-(5-ethylthiazol-2-yl)-5-(morpholinosulfonyl)benzamide]	148	215
CCc1cnc(NC(=O)c2cc(S(=O)(=O)N3CCOCC3)ccc2N(C)C2CCC2)s1 [Example 7, 2-(cyclobutyl(methyl)amino)-N-(5-ethylthiazol-2-yl)-5-(morpholinosulfonyl)benzamide]	138	243
C=CCN(C)c1ccc(S(=O)(=O)N2CCOCC2)cc1C(=O)Nc1ncc(CC)s1 [Example 8, 2-(allyl(methyl)amino)-N-(5-ethylthiazol-2-yl)-5-(morpholinosulfonyl)benzamide]	102	446
Cc1nc(NC(=O)c2cc(S(=O)(=O)N3CCOCC3)ccc2N(C)C2CCCC2)sc1C [Example 9, 2-(cyclopentyl(methyl)amino)-N-(4,5-dimethylthiazol-2-yl)-5-(morpholinosulfonyl)benzamide]	83.5	165
Cc1nc(NC(=O)c2cc(S(=O)(=O)N3CCOCC3)ccc2N(C)CC2CC2)sc1C [Example 10, 2-((cyclopropylmethyl)(methyl)amino)-N-(4,5-dimethylthiazol-2-yl)-5-(morpholinosulfonyl)benzamide]	88.7	128
CCc1cnc(NC(=O)c2cc(S(=O)(=O)N(C)C)ccc2N(C)C2CCCCC2)s1 [Example 11, 2-(cyclohexyl(methyl)amino)-5-(N,N-dimethylsulfamoyl)-N-(5-ethylthiazol-2-yl)benzamide]	52.9	248
CCc1cnc(NC(=O)c2cc(S(=O)(=O)N(C)C)ccc2N(C)CC2CC2)s1 [Example 12, 2-((cyclopropylmethyl)(methyl)amino)-5-(N,N-dimethylsulfamoyl)-N-(5-ethylthiazol-2-yl)benzamide]	133	77
CCc1cnc(NC(=O)c2cc(S(=O)(=O)N(C)C)ccc2N(C)CC)s1 [Example 13, 5-(N,N-dimethylsulfamoyl)-2-(ethyl(methyl)amino)-N-(5-ethylthiazol-2-yl)benzamide]	114	294
CCc1cnc(NC(=O)c2cc(S(=O)(=O)N(C)C)ccc2N(C)C(C)C)s1 [Example 14, 5-(N,N-dimethylsulfamoyl)-N-(5-ethylthiazol-2-yl)-2-(isopropyl(methyl)amino)benzamide]	128	372
CCc1cnc(NC(=O)c2cc(S(=O)(=O)N(C)C)ccc2N(C)C2CCC2)s1 [Example 15, 2-(cyclobutyl(methyl)amino)-5-(N,N-dimethylsulfamoyl)-N-(5-ethylthiazol-2-yl)benzamide]	141	252
CCc1cnc(NC(=O)c2cc(S(=O)(=O)N(C)C)ccc2N(C)CC2CCC2)s1 [Example 16, 2-((cyclobutylmethyl)(methyl)amino)-5-(N,N-dimethylsulfamoyl)-N-(5-ethylthiazol-2-yl)benzamide]	82.2	744
Cc1cnc(NC(=O)c2cc(S(=O)(=O)N(C)C)ccc2N(C)C2CCCC2)s1 [Example 17, 2-(cyclopentyl(methyl)amino)-5-(N,N-dimethylsulfamoyl)-N-(5-methylthiazol-2-yl)benzamide]	102	361
CCc1cnc(NC(=O)c2cc(S(=O)(=O)N(C)Cc3ccccc3)ccc2N(C)CC2CC2)s1 [Example 18, 5-(N-benzyl-N-methylsulfamoyl)-2-((cyclopropylmethyl)(methyl)amino)-N-(5-ethylthiazol-2-yl)benzamide]	71.2	266
Cc1sc(NC(=O)c2cc(S(=O)(=O)N3CCOCC3)ccc2N(C)CC2CC2)nc1-c1ccccc1 [Example 19, 2-((cyclopropylmethyl)(methyl)amino)-N-(5-methyl-4-phenylthiazol-2-yl)-5-(morpholinosulfonyl)benzamide]	66.2	563
CCc1csc(NC(=O)c2cc(S(=O)(=O)N3CCOCC3)ccc2N(C)CC2CC2)n1 [Example 20, 2-((cyclopropylmethyl)(methyl)amino)-N-(4-ethylthiazol-2-yl)-5-(morpholinosulfonyl)benzamide]	94.2	548
Cc1nc(NC(=O)c2cc(S(=O)(=O)N(C)C)cnc2N(C)C2CCCC2)sc1C [Example 21, 2-(cyclopentyl(methyl)amino)-5-(N,N-dimethylsulfamoyl)-N-(4,5-dimethylthiazol-2-yl)nicotinamide]	101	970
CCc1cnc(NC(=O)c2cc(S(=O)(=O)N(C)C)cnc2N(C)CC2CC2)s1 [Example 22, 2-((cyclopropylmethyl)(methyl)amino)-5-(N,N-dimethylsulfamoyl)-N-(5-ethylthiazol-2-yl)nicotinamide]	126	572
Cc1nc(NC(=O)c2cc(S(=O)(=O)N(C)C)cnc2N(C)CC2CC2)sc1C [Example 23, 2-((cyclopropylmethyl)(methyl)amino)-5-(N,N-dimethylsulfamoyl)-N-(4,5-dimethylthiazol-2-yl)nicotinamide]	59	863
CN(CC1CC1)c1ncc(S(=O)(=O)N(C)C)cc1C(=O)Nc1nc2c(s1)COCC2 [Example 24, 2-((cyclopropylmethyl)(methyl)amino)-N-(6,7-dihydro-4H-pyrano[4,3-d]thiazol-2-yl)-5-(N,N-dimethylsulfamoyl)nicotinamide]	43	17300
CCc1cnc(NC(=O)c2cc(S(=O)(=O)N(C)C)cnc2N(C)C2CCCC2)s1 [Example 25, 2-(cyclopentyl(methyl)amino)-5-(N,N-dimethylsulfamoyl)-N-(5-ethylthiazol-2-yl)nicotinamide]	108	309
